This is an account of results in patent US20250346592A1 (Celgene Corporation, priority 2022, published 2025).

The assay deals with hPAD4 enzyme (Homo sapiens (Human), UniProt Q9UM07). Kind of assay: RFMS2 assay (RapidFire mass spectrometry, TSTGGRQGSHH peptide substrate). In kind it is biochemical. The note with it: 35 nM recombinant human PAD4, 500 μM TSTGGRQGSHH peptide, 30 minutes at room temperature; read-out: RFMS 2 IC50. In short, it runs like this: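 Recombinant human PAD4 (35 nM) with 500 μM TSTGGRQGSHH peptide in HEPES pH 7.4, 200 mM NaCl, 2 mM CaCl2, 5 mM DTT, 1.2% DMSO, 30 min at room temperature; 3-fold compound series, top 20 μM. Quenched with formic acid; substrate and citrullinated product quantified by RapidFire MRM mass spectrometry for IC50.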
Chain of hPAD4 enzyme (Q9UM07 whole entry): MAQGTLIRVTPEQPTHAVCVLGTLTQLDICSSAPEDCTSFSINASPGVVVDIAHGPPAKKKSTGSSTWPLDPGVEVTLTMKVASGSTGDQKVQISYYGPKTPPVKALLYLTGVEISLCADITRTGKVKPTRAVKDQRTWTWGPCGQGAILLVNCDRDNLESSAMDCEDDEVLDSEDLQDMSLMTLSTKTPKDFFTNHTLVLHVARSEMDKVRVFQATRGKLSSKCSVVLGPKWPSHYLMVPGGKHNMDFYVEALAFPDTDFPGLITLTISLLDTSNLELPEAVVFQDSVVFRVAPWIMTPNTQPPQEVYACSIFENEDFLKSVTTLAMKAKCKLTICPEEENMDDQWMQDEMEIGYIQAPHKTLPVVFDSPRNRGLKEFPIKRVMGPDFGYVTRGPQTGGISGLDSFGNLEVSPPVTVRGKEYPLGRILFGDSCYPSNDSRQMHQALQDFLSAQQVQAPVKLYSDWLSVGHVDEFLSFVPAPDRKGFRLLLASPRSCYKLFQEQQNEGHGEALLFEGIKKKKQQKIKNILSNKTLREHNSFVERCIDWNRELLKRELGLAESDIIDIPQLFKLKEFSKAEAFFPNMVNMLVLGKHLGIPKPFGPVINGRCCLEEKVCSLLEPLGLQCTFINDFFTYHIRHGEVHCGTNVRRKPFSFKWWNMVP
The IC50 is the point on the concentration scale where inhibition reaches its midpoint. `C[C@@H](CCO)Oc1cccc2cc(-c3nc4cc5c(cc4n3C)CCN(C[C@H](N)CF)C5=O)n(CC3CC3)c12` [Example 191, 6-((S)-2-amino-3-fluoropropyl)-2-(1-(cyclopropylmethyl)-7-(((S)-4-hydroxybutan-2-yl)oxy)-1H-indol-2-yl)-1-methyl-1,6,7,8-tetrahydro-5H-imidazo[4,5-g]isoquinolin-5-one]: the IC50 was 101 to 500 nM. With `C[C@H](CCO)Oc1cccc2cc(-c3nc4cc5c(cc4n3C)CCN(C[C@H](N)CF)C5=O)n(CC3CC3)c12` [Example 192, 6-((S)-2-amino-3-fluoropropyl)-2-(1-(cyclopropylmethyl)-7-(((R)-4-hydroxybutan-2-yl)oxy)-1H-indol-2-yl)-1-methyl-1,6,7,8-tetrahydro-5H-imidazo[4,5-g]isoquinolin-5-one] the figure was 101 to 500 nM. Then `Cn1c(-c2cc3cccc(OCc4cn[nH]c4)c3n2CC2CC2)nc2cc3c(cc21)CCN(C[C@H](N)CF)C3=O` [Example 193, (S)-2-(7-((1H-pyrazol-4-yl)methoxy)-1-(cyclopropylmethyl)-1H-indol-2-yl)-6-(2-amino-3-fluoropropyl)-1-methyl-1,6,7,8-tetrahydro-5H-imidazo[4,5-g]isoquinolin-5-one], with 11 to 100 nM.

For `Cn1c(-c2cc3cccc(OCCc4cnco4)c3n2CC2CC2)nc2cc3c(cc21)CCN(C[C@H](N)CF)C3=O` [Example 194, (S)-6-(2-amino-3-fluoropropyl)-2-(1-(cyclopropylmethyl)-7-(2-(oxazol-5-yl)ethoxy)-1H-indol-2-yl)-1-methyl-1,6,7,8-tetrahydro-5H-imidazo[4,5-g]isoquinolin-5-one], the IC50 is 11 to 100 nM. As for `Cn1c(-c2cc3cccc(OCCc4cocn4)c3n2CC2CC2)nc2cc3c(cc21)CCN(C[C@H](N)CF)C3=O` [Example 196, (S)-6-(2-amino-3-fluoropropyl)-2-(1-(cyclopropylmethyl)-7-(2-(oxazol-4-yl)ethoxy)-1H-indol-2-yl)-1-methyl-1,6,7,8-tetrahydro-5H-imidazo[4,5-g]isoquinolin-5-one], the IC50 lay within 101 to 500 nM. `CC(Oc1cccc2cc(-c3nc4cc5c(cc4n3C)CCN(C[C@H](N)CF)C5=O)n(CC3CC3)c12)c1ccno1` (stereo partly drawn) [Example 197, 6-((S)-2-amino-3-fluoropropyl)-2-(1-(cyclopropylmethyl)-7-(1-(isoxazol-5-yl)ethoxy)-1H-indol-2-yl)-1-methyl-1,6,7,8-tetrahydro-5H-imidazo[4,5-g]isoquinolin-5-one]: the IC50 lay within 101 to 500 nM. In the case of `COC(=O)NC[C@@H](C)Oc1cccc2cc(-c3nc4cc5c(cc4n3C)CCN(C[C@H](N)CF)C5=O)n(CC3CC3)c12` [Example 200, methyl ((R)-2-((2-(6-((S)-2-amino-3-fluoropropyl)-1-methyl-5-oxo-5,6,7,8-tetrahydro-1H-imidazo[4,5-g]isoquinolin-2-yl)-1-(cyclopropylmethyl)-1H-indol-7-yl)oxy)propyl)carbamate], the IC50 lay within 101 to 500 nM.

Take `COC(=O)NC[C@H](C)Oc1cccc2cc(-c3nc4cc5c(cc4n3C)CCN(C[C@H](N)CF)C5=O)n(CC3CC3)c12` [Example 202, methyl ((S)-2-((2-(6-((S)-2-amino-3-fluoropropyl)-1-methyl-5-oxo-5,6,7,8-tetrahydro-1H-imidazo[4,5-g]isoquinolin-2-yl)-1-(cyclopropylmethyl)-1H-indol-7-yl)oxy)propyl) carbamate]: the IC50 is 101 to 500 nM.

As to `Cn1c(-c2cc3cccc(OCCc4cc[nH]c4)c3n2CC2CC2)nc2cc3c(cc21)CCN(C[C@H](N)CF)C3=O` [Example 203], the IC50 lay in the range of 101 to 500 nM. Then `COC(=O)N[C@H](C)COc1cccc2cc(-c3nc4cc5c(cc4n3C)CCN(C[C@H](N)CF)C5=O)n(CC3CC3)c12` [Example 209, methyl ((R)-1-((2-(6-((S)-2-amino-3-fluoropropyl)-1-methyl-5-oxo-5,6,7,8-tetrahydro-1H-imidazo[4,5-g]isoquinolin-2-yl)-1-(cyclopropylmethyl)-1H-indol-7-yl)oxy)propan-2-yl) carbamate], with 501 to 1000 nM; and `CNC(=O)OCCOc1cccc2cc(-c3nc4cc5c(cc4n3C)CCN(C[C@H](N)CF)C5=O)n(CC3CC3)c12` [Example 211, (S)-2-((2-(6-(2-amino-3-fluoropropyl)-1-methyl-5-oxo-5,6,7,8-tetrahydro-1H-imidazo[4,5-g]isoquinolin-2-yl)-1-(cyclopropylmethyl)-1H-indol-7-yl)oxy)ethyl methylcarbamate], with 101 to 500 nM; and `Cn1c(-c2cc3cccc(OCC(C)(C)O)c3n2CC2CC2)nc2cc3c(cc21)CCN(C[C@H](N)CF)C3=O` [Example 214, (S)-6-(2-amino-3-fluoropropyl)-2-(1-(cyclopropylmethyl)-7-(2-hydroxy-2-methylpropoxy)-1H-indol-2-yl)-1-methyl-1,6,7,8-tetrahydro-5H-imidazo[4,5-g]isoquinolin-5-one], with 501 to 1000 nM.

As to `Cn1c(-c2cc3cccc(OC[C@@H](O)C(F)(F)F)c3n2CC2CC2)nc2cc3c(cc21)CCN(C[C@H](N)CF)C3=O` [Example 215, 6-((S)-2-amino-3-fluoropropyl)-2-(1-(cyclopropylmethyl)-7-((R)-3,3,3-trifluoro-2-hydroxypropoxy)-1H-indol-2-yl)-1-methyl-1,6,7,8-tetrahydro-5H-imidazo[4,5-g]isoquinolin-5-one], the IC50 lay within 101 to 500 nM. For the compound `Cn1c(-c2cc3cccc(OC[C@H](O)C(F)(F)F)c3n2CC2CC2)nc2cc3c(cc21)CCN(C[C@H](N)CF)C3=O` [Example 216, 6-((S)-2-amino-3-fluoropropyl)-2-(1-(cyclopropylmethyl)-7-((S)-3,3,3-trifluoro-2-hydroxypropoxy)-1H-indol-2-yl)-1-methyl-1,6,7,8-tetrahydro-5H-imidazo[4,5-g]isoquinolin-5-one], the IC50 was in the range of 101 to 500 nM. In the case of `Cn1c(-c2cc3cccc(OCCO)c3n2Cc2ccno2)nc2cc3c(cc21)CCN(C[C@H](N)CF)C3=O` [Example 218, (S)-6-(2-amino-3-fluoropropyl)-2-(7-(2-hydroxyethoxy)-1-(isoxazol-5-ylmethyl)-1H-indol-2-yl)-1-methyl-1,6,7,8-tetrahydro-5H-imidazo[4,5-g]isoquinolin-5-one], the IC50 lay within 101 to 500 nM. Then `Cn1c(-c2cc3cccc(OCC4CCNC4=O)c3n2CC2CC2)nc2cc3c(cc21)CCN(C[C@H](N)CF)C3=O` (stereo partly drawn) [Example 219, 6-((S)-2-amino-3-fluoropropyl)-2-(1-(cyclopropylmethyl)-7-((2-oxopyrrolidin-3-yl)methoxy)-1H-indol-2-yl)-1-methyl-1,6,7,8-tetrahydro-5H-imidazo[4,5-g]isoquinolin-5-one], with 101 to 500 nM; and `Cn1c(-c2cc3cccc(OCCn4cnc(C#N)n4)c3n2CC2CC2)nc2cc3c(cc21)CCN(C[C@H](N)CF)C3=O` [Example 224, (S)-1-(2-((2-(6-(2-amino-3-fluoropropyl)-1-methyl-5-oxo-5,6,7,8-tetrahydro-1H-imidazo[4,5-g]isoquinolin-2-yl)-1-(cyclopropylmethyl)-1H-indol-7-yl)oxy)ethyl)-1H-1,2,4-triazole-3-carbonitrile], with 101 to 500 nM. In the case of `Cn1c(-c2cc3cccc(OCCn4ncnc4C#N)c3n2CC2CC2)nc2cc3c(cc21)CCN(C[C@H](N)CF)C3=O` [Example 225, (S)-1-(2-((2-(6-(2-amino-3-fluoropropyl)-1-methyl-5-oxo-5,6,7,8-tetrahydro-1H-imidazo[4,5-g]isoquinolin-2-yl)-1-(cyclopropylmethyl)-1H-indol-7-yl)oxy)ethyl)-1H-1,2,4-triazole-5-carbonitrile], the IC50 was over 1000 nM. With `COc1ccc2cc(-c3nc4cc5c(c(F)c4n3C)CCN(C[C@H](N)CF)C5=O)n(CC3CC3)c2c1` [Example 239, (S)-6-(2-amino-3-fluoropropyl)-2-(1-(cyclopropylmethyl)-6-methoxy-1H-indol-2-yl)-9-fluoro-1-methyl-1,6,7,8-tetrahydro-5H-imidazo[4,5-g]isoquinolin-5-one] the figure was 501 to 1000 nM.
